Results as given in patent US9109041B2, “Analog compounds of analgesic peptides derived from the venom of crotalus durissus terrificus snakes, their uses, compositions, methods of preparation and purification” (priority 2004, dated 2015).

How the values were obtained:
[1] = tested on: hyperalgesia induced by chronic constriction of the sciatic nerve; experiment: hyperalgesia induced by chronic constriction of the sciatic nerve (rat paw pressure test); type: in vivo; details: for pain threshold, FM 24 h: day 14, 24 h after peptide; for pain threshold, FM 48 h: day 14, 48 h after peptide; for pain threshold, FM 72 h: day 14, 72 h after peptide; for pain threshold, FM 96 h: day 14, 96 h after peptide
Method: For the induction of neuropathic pain, surgery was performed in the sciatic nerve, in accordance with the method described by Bennett, G. J and Xie, Y. K. (Pain, 33:87-107, 1988). The animals were anesthetized with halothane. The sciatic nerve was exposed in the middle region of the thigh, moving away the femoral biceps muscle. Close to the trifurcation of the sciatic nerve, 7 mm of distance from the trifurcation, 4 loose ligations were performed (chromed catgut 4-0) around it, distant from each other in approximately 1 mm. The bindings were performed along the nerve, up to 4-5 mm from the initial point. The incision was sutured in layers, using silk suture thread number 4-0.
The test was applied before (BM-basal measurement) and on the 14th day after the surgery, to characterize the development of neuropathic pain.
The results were analyzed by comparing the means of the basal and initial measurements or by comparing the means of the initial and final measurements or, when determined, through the comparison of the means obtained in the different experimental groups.
(§1) For this purpose, the animals were treated with CTOP, a specific μ receptor antagonist (20 μg/paw), nor-BNI, a specific κ receptor antagonist (50 μg/paw) or with ICI 174,864, a specific δ receptor antagonist (10 μg/paw). The antagonists were injected, by intraplantar route. The peptide was administered in the dose of 5 μg/kg, orally, immediately before the injection of the opioid antagonists.
The results were analyzed comparing the mean values of the basal and initial measurements, or of the initial and final measurements or, when determined, by comparing the mean values obtained in the different experimental groups (Tables 15 and 16).

[2] = tested on: allodynia induced by the Walker 256 tumor; experiment: allodynia induced by the Walker 256 tumor (cancer pain); type: in vivo, rat
Excerpt: The Walker 256 tumor cells were kindly provided by Prof. Dr. Rui Curi, of the Physiology and Biophysics Department of the Biomedical Science Institute of the University of São Paulo. The tumor-bearing animal was sacrificed and the tumoral tissue was removed, placed on a Petri dish containing 0.9% saline. Then, the tumor was cut in smaller parts, and transferred into a beaker containing saline. The material was triturated with a fine-cut, until the tumor is totally fragmented. Then, this material was filtered in gauze and the liquid collected in a beaker. All procedures were performed on ice. The material of the beaker was transferred to 50 ml plastic tubes and centrifuged at 4° C., for 10 minutes, at 1200 rpm. After centrifugation, the supernatant was rejected and the precipitate resuspended in saline 0.9%. For cell counts, the suspension of cells was diluted (1:100) in saline. An aliquot (200 μl) was removed and placed in a test tube containing 200 μl of 1% Trypan blue. The cell number was determined in optical microscope using Neubauer's chamber. The cellular viability was determined considering viable the light-refracting cells.
After determining the number of cells, 1 ml of the suspension, containing 1×10^7 cells, was injected by intraperitoneal route, on the right side of the rats to obtain liquid tumor (ascites).
Five days after injection, the rats with ascites were sacrificed and the ascetic fluid collected from the peritoneal cavity and placed in a test tube containing EDTA. The liquid was diluted 100 times with phosphate-buffered saline (PBS), pH 7.4. The cell count was done after dilution with Trypan blue, as described above. Tumor cell count was ascertained to 1×10^6 cells in 100 μl, by dilution with PBS. This number of cells was determined in preliminary tests for induction of cancer pain in rats. In this final cell number adjustment, the volume of antibiotic (Benzetacil®) added to the suspension (150,000 units of antibiotic/10 ml of suspension), was taken into consideration. The antibiotic was used in order to avoid microbial contamination. The cells were injected by intraplantar route into one of the rat hind paws. Control animals were injected with PBS into the contralateral paw, in the same experimental conditions.
Hyperalgesia, allodynia and spontaneous pain were determined before (BM-basal measurement) and 5 days after tumor cell injection, before (IM-initial measurement) and 2 hours after (FM-Final measurement) peptide administration.
The results were analyzed comparing the mean values of the basal and initial measurements, or of the initial and final measurements or, when determined, by comparing the mean values obtained in the different experimental groups (Tables 17, 18, 19).
as §1, with “were injected” for “were injected,”, “of 6” for “of 5”, “antagonists. The results were analyzed comparing the mean values of the basal and initial measurements, or of the initial and final measurements or, when determined, by comparing the mean values obtained in the different experimental groups ( Table 20).” for “antagonists.”

[3] = oral route, results 1 hour after treatment, reversal of hyperalgesia, CurveExpert 1.3

Xaa-Phe-Ser-Pro-Glu-Asn-Cys-Gln-Gly-Glu-Ser-Gln-Pro-Cys [SEQ ID NO: 2]
pain threshold, FM 24 h ([1]; 1 μg/kg p.o.): 71 ± 1.00 g
pain threshold, FM 48 h ([1]; 1 μg/kg p.o.): 74 ± 1.00 g
pain threshold, FM 72 h ([1]; 1 μg/kg p.o.): 71 ± 1.00 g
pain threshold, FM 96 h ([1]; 1 μg/kg p.o.): 33 ± 1.22 g
pain threshold, IM ([1]; 1 μg/kg p.o., day 14 after surgery, before peptide): 31 ± 1.00 g
pain threshold, FM 1 h ([1]; 5 μg/kg p.o. + CTOP 20 μg/paw i.pl., 1 h after peptide): 105 ± 4.18 g
pain threshold, MF 3 h ([1]; 5 μg/kg p.o. + CTOP 20 μg/paw i.pl., 3 h after peptide): 112 ± 5.83 g
pain threshold, BM ([1]; 5 μg/kg p.o. + CTOP 20 μg/paw i.pl., before surgery): 72 ± 1.22 g
pain threshold, IM ([1]; 5 μg/kg p.o. + CTOP 20 μg/paw i.pl., day 14, before peptide): 41 ± 1.88 g
pain threshold, FM 1 h ([1]; 5 μg/kg p.o. + ICI 174,864 10 μg/paw i.pl., 1 h after peptide): 35 ± 1.87 g
pain threshold, MF 3 h ([1]; 5 μg/kg p.o. + ICI 174,864 10 μg/paw i.pl., 3 h after peptide): 37 ± 2.55 g
pain threshold, BM ([1]; 5 μg/kg p.o. + ICI 174,864 10 μg/paw i.pl., before surgery): 72 ± 1.22 g
pain threshold, IM ([1]; 5 μg/kg p.o. + ICI 174,864 10 μg/paw i.pl., day 14, before peptide): 34 ± 1.87 g
pain threshold, FM 1 h ([1]; 5 μg/kg p.o. + nor-BNI 50 μg/paw i.pl., 1 h after peptide): 69 ± 1.87 g
pain threshold, MF 3 h ([1]; 5 μg/kg p.o. + nor-BNI 50 μg/paw i.pl., 3 h after peptide): 75 ± 1.58 g
pain threshold, BM ([1]; 5 μg/kg p.o. + nor-BNI 50 μg/paw i.pl., before surgery): 73 ± 1.22 g
pain threshold, IM ([1]; 5 μg/kg p.o. + nor-BNI 50 μg/paw i.pl., day 14, before peptide): 35 ± 1.58 g
pain threshold, BM ([1]; 5 μg/kg p.o., before surgery (Table 11)): 72 ± 0.79 g
pain threshold, BM ([1]; 5 μg/kg p.o., before surgery (Table 15)): 72 ± 1.44 g
pain threshold, FM 1 h ([1]; 5 μg/kg p.o., day 14, 1 h after peptide (Table 11)): 100 ± 4.42 g
pain threshold, FM 1 h ([1]; 5 μg/kg p.o., day 14, 1 h after peptide (Table 15)): 114 ± 6.57 g
pain threshold, FM 3 h ([1]; 5 μg/kg p.o., day 14, 3 h after peptide (Table 11)): 98 ± 4.28 g
pain threshold, MF 3 h ([1]; 5 μg/kg p.o., day 14, 3 h after peptide (Table 15)): 121 ± 5.91 g
pain threshold, FM 24 h ([1]; 5 μg/kg p.o.): 99 ± 3.51 g
pain threshold, FM 48 h ([1]; 5 μg/kg p.o.): 93 ± 3.00 g
pain threshold, FM 72 h ([1]; 5 μg/kg p.o.): 86 ± 2.45 g
pain threshold, FM 96 h ([1]; 5 μg/kg p.o.): 33 ± 1.18 g
pain threshold, IM ([1]; 5 μg/kg p.o., day 14, before peptide (Table 15)): 35 ± 2.04 g
pain threshold, IM ([1]; 5 μg/kg p.o., day 14 after surgery, before peptide (Table 11)): 32 ± 0.79 g
duration of the anti-hyperalgesic effect ([1]; one single administration p.o.): up to 3 days
50% effective dose [1, 3]: 0.2055 µg/kg
60% effective dose [1, 3]: 0.2832 µg/kg
90% effective dose [1, 3]: 0.5747 µg/kg
effect of the mu opioid receptor antagonist on the anti-hyperalgesic effect of the peptide ([1]; peptide 5 μg/kg p.o., CTOP 20 μg/paw i.pl.): did not alter
effect of the delta opioid receptor antagonist on the anti-hyperalgesic effect of the peptide ([1]; peptide 5 μg/kg p.o., ICI 174,864 10 μg/paw i.pl.): blocked
effect of the kappa opioid receptor antagonist on the anti-hyperalgesic effect of the peptide ([1]; peptide 5 μg/kg p.o., nor-BNI 50 μg/paw i.pl.): partially inhibited
paw withdrawal threshold (allodynia), FM ([2]; 6 μg/kg p.o. + CTOP 20 μg/paw i.pl., 5th day, 2 hours after peptide): 4.98 ± 0.03 log 10 (mg × 10)
paw withdrawal threshold (allodynia), IM ([2]; 6 μg/kg p.o. + CTOP 20 μg/paw i.pl., 5th day, before peptide): 4.41 ± 0.00 log 10 (mg × 10)
paw withdrawal threshold (allodynia), BM ([2]; 6 μg/kg p.o. + CTOP 20 μg/paw i.pl., before injection of the tumor): 5.03 ± 0.02 log 10 (mg × 10)
paw withdrawal threshold (allodynia), FM ([2]; 6 μg/kg p.o. + ICI 174,864 10 μg/paw i.pl., 5th day, 2 hours after peptide): 4.56 ± 0.03 log 10 (mg × 10)
paw withdrawal threshold (allodynia), IM ([2]; 6 μg/kg p.o. + ICI 174,864 10 μg/paw i.pl., 5th day, before peptide): 4.41 ± 0.00 log 10 (mg × 10)
paw withdrawal threshold (allodynia), BM ([2]; 6 μg/kg p.o. + ICI 174,864 10 μg/paw i.pl., before injection of the tumor): 4.99 ± 0.02 log 10 (mg × 10)
paw withdrawal threshold (allodynia), FM ([2]; 6 μg/kg p.o. + nor-BNI 50 μg/paw i.pl., 5th day, 2 hours after peptide): 4.41 ± 0.00 log 10 (mg × 10)
paw withdrawal threshold (allodynia), IM ([2]; 6 μg/kg p.o. + nor-BNI 50 μg/paw i.pl., 5th day, before peptide): 4.41 ± 0.00 log 10 (mg × 10)
paw withdrawal threshold (allodynia), BM ([2]; 6 μg/kg p.o. + nor-BNI 50 μg/paw i.pl., before injection of the tumor): 4.97 ± 0.00 log 10 (mg × 10)
paw withdrawal threshold (allodynia), FM ([2]; 6 μg/kg p.o., 5th day after tumor implantation, 2 hours after peptide (Table 18)): 4.97 ± 0.00 log 10 (mg × 10)
paw withdrawal threshold (allodynia), IM ([2]; 6 μg/kg p.o., 5th day after tumor implantation, before peptide (Table 18)): 4.41 ± 0.00 log 10 (mg × 10)
paw withdrawal threshold (allodynia), FM ([2]; 6 μg/kg p.o., 5th day, 2 hours after peptide (Table 21)): 4.97 ± 0.00 log 10 (mg × 10)
paw withdrawal threshold (allodynia), IM ([2]; 6 μg/kg p.o., 5th day, before peptide (Table 21)): 4.41 ± 0.00 log 10 (mg × 10)
paw withdrawal threshold (allodynia), BM ([2]; 6 μg/kg p.o., before injection of the tumor (Table 18)): 4.97 ± 0.00 log 10 (mg × 10)
paw withdrawal threshold (allodynia), BM ([2]; 6 μg/kg p.o., before injection of the tumor (Table 21)): 4.97 ± 0.00 log 10 (mg × 10)
effect of the mu opioid receptor antagonist on the anti-allodynic effect of the peptide ([2]; peptide 6 μg/kg p.o., CTOP 20 μg/paw i.pl.): did not alter
effect of the delta opioid receptor antagonist on the anti-allodynic effect of the peptide ([2]; peptide 6 μg/kg p.o., ICI 174,864 10 μg/paw i.pl.): partially inhibited
effect of the kappa opioid receptor antagonist on the anti-allodynic effect of the peptide ([2]; peptide 6 μg/kg p.o., nor-BNI 50 μg/paw i.pl.): blocked
